ChEMBL document CHEMBL3507680, “University of Dundee, Gates Library screen for HepG2 cell viability”

test: Human HepG2 cell viability assay in 384 well format; format: toxicity, cell-based; parameters: dose 125 nL, time 70.5 hour; concentration not given beside the values; conditions: HepG2 cells, read-out: Inhibition

Going from `CCn1cc(CN2CCC3(CC2)c2ccccc2CC3O)cn1` (stereo unspecified) to `COCC(=O)N1CC[C@@H]2CN(Cc3ccccc3)S(=O)(=O)[C@@H]2CC1`, the cytotoxicity at 70.5 h rises from -8.46% to -5.37%.

First: CC(C)=CCN1C[C@H]2CC[C@@H]1CN(C(=O)c1c[nH]c(=O)c(Cl)c1)C2
Second: CCCc1cc(C(=O)N2C[C@@H](C)[C@](O)(C3CCC3)C2)[nH]n1
The cytotoxicity at 70.5 h of the first is lower: -1.3% for the first, 8.19% for the second.

Compared with `CCCc1noc(CN2CCN(CCO)CC2)n1`, `CCn1nc(CC(C)C)cc1C(=O)NCCCN1CCOCC1` is higher in cytotoxicity at 70.5 h: -1.1% for the first, -0.263% for the second.

First: CC(=O)N1N=C(c2ccccc2)OC1C(=O)NCCC1=CCCCC1 (stereo unspecified)
Second: CC(=O)Nc1ccc2c(c1)nc1n2[C@@H](CNCc2ccccc2)COC1
The cytotoxicity at 70.5 h of the first is higher: -0.565% for the first, -11.7% for the second.

Going from `Cn1ccc(C(=O)NCc2ccc(Cn3ccnc3)cc2)cc1=O` to `CN(C)c1ccc(C(=O)Nc2cnn(Cc3ccccn3)c2)cc1`, the cytotoxicity at 70.5 h falls from -1.16% to -9.41%.

First: COc1c(CNCc2ccc3c(c2)OCO3)c(C(C)C)nn1C
Second: CC1(Cc2ccc3c(c2)OCO3)CCCN(S(=O)(=O)N2CCOCC2)C1 (stereo unspecified)
The cytotoxicity at 70.5 h of the first is higher: 18.3% for the first, -6.32% for the second.

First: Cn1cc(N2CCC(Nc3ccc4nccnc4n3)C2=O)cn1 (stereo unspecified)
Second: CN1CC2(CCN(C(=O)c3cc(-n4cccn4)ccc3Cl)CC2)OC1=O
The cytotoxicity at 70.5 h of the first is lower: -10.5% for the first, 7.23% for the second.

Going from `CC(C)(O)CNC(=O)NCc1nccn1CCc1ccccc1` to `O=C(Cc1ccccc1)NC[C@H]1Cn2ccnc2CO1`, the cytotoxicity at 70.5 h rises from -1.1% to 5.13%.

Going from `Nc1nccc(C2CCCN(CC3CC3)C2)n1` (stereo unspecified) to `c1cnn(CC2CN(Cc3csc(C4CCCCC4)n3)CCO2)c1` (stereo unspecified), the cytotoxicity at 70.5 h rises from -4.18% to -0.469%.

Going from `COc1ccc(-n2nc(C(C)C)nc2COC(C)C)cc1` to `COc1cccc(OCc2cc(C(=O)N3CC(O)C3)n[nH]2)c1`, the cytotoxicity at 70.5 h falls from 20.2% to -2.2%.

First: COc1cccc(S(=O)(=O)CCNC2CCc3ncnn3C2)c1 (stereo unspecified)
Second: CCOC(=O)CCNC(=O)N1CCOC(Cc2cccc(OC)c2)C1 (stereo unspecified)
The cytotoxicity at 70.5 h of the first is higher: -4.52% for the first, -9.71% for the second.

First: CCOc1cccc(CNC(=O)CN2CCC3(CCOC3)C2)c1 (stereo unspecified)
Second: CC(NC1(CNC(=O)Cn2cccn2)CCOCC1)c1ccccc1 (stereo unspecified)
The cytotoxicity at 70.5 h of the first is higher: -6.18% for the first, -6.45% for the second.

Going from `O=c1[nH]nc2c(N3CCOCC3)nccn12` to `O=C(NCCCc1ccco1)c1ccc(N2CCOCC2)cc1`, the cytotoxicity at 70.5 h rises from -11.6% to 4.57%.

Going from `Cc1cc(C(=O)N2CCNC(c3ccccc3)C2)c2ccc(F)cc2n1` (stereo unspecified) to `FC(F)(F)C1CN(Cc2cccc(OCc3ccccn3)c2)CCO1` (stereo unspecified), the cytotoxicity at 70.5 h rises from -4.04% to 8.84%.

First: O[C@@H]1C[C@@H](c2nc(-c3cccnc3)no2)N(C2CCOCC2)C1
Second: CN(C(=O)COc1ccc(-c2noc(C3CCCO3)n2)cc1)C1CC1 (stereo unspecified)
The cytotoxicity at 70.5 h of the first is higher: 16.4% for the first, 0.982% for the second.

Compared with `Cc1ccc(-c2noc(CN3CCC(c4ccn[nH]4)CC3)n2)cc1`, `Cc1nnc2n1CCN(Cc1csc(-c3ncccn3)n1)C2` is higher in cytotoxicity at 70.5 h: 0.504% for the first, 39.4% for the second.

First: CN(C)Cc1nnc(C2CCCN(c3ncccc3F)C2)n1C (stereo unspecified)
Second: CN(Cc1nnc2n1CCC2)S(=O)(=O)c1cc(Br)ccc1Br
The cytotoxicity at 70.5 h of the first is higher: 24.4% for the first, -13.1% for the second.

First: Cc1nc(N)cc(C2CCN2CCC(N)=O)n1 (stereo unspecified)
Second: Cc1ccc(N(C)C2CCN(C(=O)c3ccsc3)CC2)nn1
The cytotoxicity at 70.5 h of the first is higher: -3.73% for the first, -13.8% for the second.

Going from `c1cnc(N2CCC3(CCCN(Cc4ccncc4)C3)CC2)nc1` to `CN(C)C(=O)N1CCN(C(=O)c2ccn3cncc3c2)CC1`, the cytotoxicity at 70.5 h falls from 18.3% to 0.173%.

Compared with `Cc1cc(C)c(CNC(=O)c2ccc3c(c2)CCC3)c(=O)[nH]1`, `Cc1nn(C)c(C)c1-c1ccc(=O)n(C(C)C(=O)NC2CC2)n1` (stereo unspecified) is higher in cytotoxicity at 70.5 h: 4.13% for the first, 17.4% for the second.

Going from `COc1cc(C)ccc1S(=O)(=O)N1CC[C@](C)(O)[C@H](C)C1` to `COCCS(=O)(=O)NC(C)c1cccc(C)c1C` (stereo unspecified), the cytotoxicity at 70.5 h rises from -5.97% to 28.4%.

Compared with `Cc1ncccc1NS(=O)(=O)Cc1cccc(F)c1`, `COc1ccccc1OCCn1c(C)c(C)oc1=O` is higher in cytotoxicity at 70.5 h: -2.53% for the first, 23.3% for the second.

First: OCC(O)CSCc1ccc(F)cc1Cl (stereo unspecified)
Second: CSc1nnc(N(CCC#N)CCC#N)s1
The cytotoxicity at 70.5 h of the first is higher: 19.6% for the first, 6.15% for the second.
